Experimental data: ChEMBL document CHEMBL4422688, “(+)- and (-)-Alternarilactone A: Enantiomers with a Diepoxy-Cage-like Scaffold from an Endophytic Alternaria sp” (J Nat Prod, 2019)
Activity calls are given as the source filed them. The calls are words filed in the database; no cut-off is given here.

Tests used:
[1] = system: PC-12; assay: Cytoprotective activity against corticosterone-induced apoptosis in rat PC12 cells incubated for 24 hrs by MTS assay; type: functional, cell-based
[2] = system: Staphylococcus aureus; assay: Antibacterial activity against Staphylococcus aureus assessed as inhibition of microbial growth incubated for 12 hrs by microdilution method; type: functional, organism-based
[3] = system: Salmonella typhi; assay: Antibacterial activity against Salmonella typhi assessed as inhibition of microbial growth incubated for 12 hrs by microdilution method; type: functional, organism-based; details: Salmonella enterica subsp. enterica serovar Typhi
[4] = system: Gaeumannomyces graminis; assay: Antifungal activity against Gaeumannomyces graminis incubated for 48 hrs; type: functional, organism-based
[5] = system: Verticillium; assay: Antifungal activity against Verticillium cinnabarinum incubated for 48 hrs; type: functional

COc1cc(O)c2c(c1)[C@@]13O[C@]4(C)C[C@@](O)(C(=O)C[C@@]1(C)O4)[C@H]3OC2=O
Activity [1]: Active | Activity [2]: inactive | Activity [3]: inactive | Activity [4]: inactive | Activity [5]: inactive

COc1cc(O)c2c(c1)[C@]13O[C@@]4(C)C[C@](O)(C(=O)C[C@]1(C)O4)[C@@H]3OC2=O
Activity [1]: Active | Activity [2]: inactive | Activity [3]: inactive | Activity [4]: inactive | Activity [5]: inactive
